In brackets after ≈: the same amount, converted by molar mass. Read-outs that look alike come from different tables or passages of the source.
Tests used:
[1] = Prodrug-drug conversion in full blood; assay type: in vitro ADME; settings: fresh heparinised rat blood, 37° C., after 120 min
Procedure: 495 μL fresh heparinised rat blood are spiked with 5 μL of a 1 mg/mL DMSO solution of the analyte (prodrug) at 37° C. After t=0, 5, 15, 30, 60 and 120 min, a blood sample is taken and precipitated. Therefore to 50 μL blood sample or spiked blood sample 150 μL acetonitrile containing an internal standard are added. Samples are centrifuged and 20 μl of the supernatant are injected into the HPLC system for determination of compound concentration (prodrug and parent drug) by LC-MS/MS analysis.
For calibration, a standard curve is prepared with a compound concentration range from 10 to 10000 ng/mL in fresh heparine rat blood. Therefore the blood is spiked (2 μL DMSO solution in 198 μL fresh rat blood) and precipitated like unknown samples.

[2] = Determination of kinetic solubility; assay type: physicochemical; settings: aqueous buffer, kinetic from dmso stock, 2.5% DMSO, room temperature, read-out: C eff
Procedure: Compounds, provided as 20 mM or 10 mM stock solutions in 100% DMSO, are diluted 1:40 in aqueous buffer to a concentration of 0.5 mM or 0.25 mM, respectively, with 2.5% residual DMSO. The pH 6.5 buffer consists of 0.05 M 3-(N-morpholino)-2-hydroxypropanesulfonic acid (MOPSO) adjusted to the target pH with NaOH. Buffers at pH 5 and pH 3 are prepared from commercially available concentrates (Titrisol®, Merck). The samples are then incubated at room temperature for 6 hours with gentle shaking followed by vacuum filtration through a MultiScreen DV plate (Durapore hydrophilic PVDF membrane, 0.65 μm pore size, Millipore). The filtrates are adjusted to 20% acetonitrile and analyzed by UV spectroscopy to obtain the absorption maximum and the corresponding wavelength. The concentration of compound in the filtrate is calculated based on the linear part of a standard curve constructed using 3 to 5 known concentrations of each sample in aqueous buffer supplemented with 20% acetonitrile.

[3] = Determination of the maximum tolerated dose (MTD), once weekly i.v.; settings: athymic nude, mouse, in vivo, iv
Excerpt: Mice bearing SW480 colorectal cancer xenografts are used to test and compare the anti-cancer efficacy and tolerability of intravenous (i.v.) application of the prodrug according to Example 1 (S-2,6-diamino-hexanoic acid [4-(2-{2-[4-(2-cyano-ethylamino)-furazan-3-yl]-benzoimidazol-1-yl}-acetyl)-phenyl]-amide hydrochloride salt) and the corresponding parent drug” (3-(4-{1-[2-(4-amino-phenyl)-2-oxo-ethyl]-1H-benzoimidazol-2-yl}-furazan-3-ylamino)-propionitrile) at the maximum tolerated dose level (MTD). Prior to the efficacy experiment, a determination of the MTD of each compound administered once weekly is performed in non-tumor-bearing nude mice of the same strain. Administration of 24.5 mg/kg prodrug and 10 mg/kg parent drug, given as an i.v. bolus once weekly, results in body weight losses >10% in a few animals in both groups. The MTDs in tumor-bearing mice are, therefore, determined to be 15-20% lower, resulting in doses of 21 mg/kg prodrug and 8 mg/kg parent drug. Human colorectal carcinoma cells (SW480) are injected subcutaneously (4×10^6 cells) into the back of 4-8-week old athymic nude mice. Tumor volumes are determined from calliper measurements of tumor length (L) and width (1) according to the formula (L×l^2)/2. Tumors are allowed to expand to a volume of 200 mm^3 (±10%) before treatment start. […] Tumor volume and body weight are monitored daily.

[4] = Pharmacokinetic studies in xenografted mice (plasma and tumor); assay type: in vivo, CD-1 Nu/Nu female mice; settings: female, CD-1 Nu/Nu, mouse, iv
Procedure: CD-1 Nu/Nu female mice implanted with the human colon carcinoma SW480 cell line are treated with either the “Parent Drug”, i.e. 3-(4-{1-[2-(4-amino-phenyl)-2-oxo-ethyl]-1H-benzoimidazol-2-yl}-furazan-3-ylamino)-propionitrile, or “Example 1” i.e. S-2,6-diamino-hexanoic acid [4-(2-{2-[4-(2-cyano-ethylamino)-furazan-3-yl]-benzoimidazol-1-yl}-acetyl)-phenyl]-amide hydrochloride salt, when the tumor size reached approximately 150 mm^3+/−10%. Mice (33 per compound) are treated i.v. […]
After the 4th application (4th week), three mice/sampling point from the “Parent Drug” and “Example 1” groups are culled before and 5 min, 15 min, 30 min, 45 min, 1 h, 1.5 h, 2 h, 4 h, 6 h and 24 h post-administration. Blood is collected by cardiac puncture into K3EDTA tubes kept on ice until centrifugation at 4° C. Plasma is stored at −20° C. At necropsy, tumors are removed and weighed. Tumors are stored at −20° C. Plasma and tumor samples are analyzed by LC-MS/MS. Pharmacokinetic parameters are calculated using WinNonLin 5.2. All results for “Example 1” represent the free base.

[5] = system: SW480 colorectal cancer xenografts; experiment: In vivo efficacy studies, SW480 xenografts; set-up: species or system athymic nude mice; settings: for final T/C (ratio of tumor volume in the treatment group vs. the control group) at day 24: once weekly i.v. for 24 days, prodrug 21 mg/kg, parent drug 8 mg/kg; for final T/C (day 24): three times per week (d1/4/7) i.v. for 24 days, prodrug 7.1 mg/kg
Excerpt: Mice bearing SW480 colorectal cancer xenografts are used to test and compare the anti-cancer efficacy and tolerability of intravenous (i.v.) application of the prodrug according to Example 1 (S-2,6-diamino-hexanoic acid [4-(2-{2-[4-(2-cyano-ethylamino)-furazan-3-yl]-benzoimidazol-1-yl}-acetyl)-phenyl]-amide hydrochloride salt) and the corresponding parent drug” (3-(4-{1-[2-(4-amino-phenyl)-2-oxo-ethyl]-1H-benzoimidazol-2-yl}-furazan-3-ylamino)-propionitrile) at the maximum tolerated dose level (MTD). Prior to the efficacy experiment, a determination of the MTD of each compound administered once weekly is performed in non-tumor-bearing nude mice of the same strain. Administration of 24.5 mg/kg prodrug and 10 mg/kg parent drug, given as an i.v. bolus once weekly, results in body weight losses >10% in a few animals in both groups. The MTDs in tumor-bearing mice are, therefore, determined to be 15-20% lower, resulting in doses of 21 mg/kg prodrug and 8 mg/kg parent drug. Human colorectal carcinoma cells (SW480) are injected subcutaneously (4×10^6 cells) into the back of 4-8-week old athymic nude mice. Tumor volumes are determined from calliper measurements of tumor length (L) and width (1) according to the formula (L×l^2)/2. Tumors are allowed to expand to a volume of 200 mm^3 (±10%) before treatment start. The prodrug and parent drug are administered i.v. for 24 days, either once per week at 21 mg/kg and 8 mg/kg, respectively, or three times a week (d1/4/7) at 7.1 mg/kg and 2.7 mg/kg, respectively (both schedules represent the same total weekly dose). Tumor volume and body weight are monitored daily.
(§1) FIG. 1 provides a graphical representation of the changes in mean tumor volume during the time of treatment when using the administration schedule, wherein prodrug and parent drug are given once weekly for 24 days at doses of 21 mg/kg and 8 mg/kg, respectively, with appropriate vehicle controls (5 ml/kg) administered with the same schedule. Data points represent mean values+/−SEM (n=7-8 animals, each animal was engrafted with one tumor).
as §1, with “2” for “1”, “three times per week (d1/4/7)” for “once weekly”, “7.1” for “21”, “2.7 mg/kg in 5 ml/kg,” for “8 mg/kg,”, “points again” for “points”

[6] = In vivo pharmacokinetic studies, intravenous administration, Vena saphena screening method; set-up: species or system male NMRI mice; settings: mice, i.v. administration of the prodrug
Procedure: The compounds are evaluated in vivo after intravenous administration to male NMRI mice using the Vena saphena screening method.
A dose of 1 mg/kg of the compound is administered i.v. as a bolus (5 mL/kg). Serial blood samples (40 μL) are drawn after puncture of the saphenous vein and collected in a sodium heparin coated capillary tube from two mice per time point at pre-dose, 5 min, 15 min, 30 min, 45 min, 1 h, 2 h, 4 h, 6 h, 8 h and 24 h after intravenous administration.
Blood samples are weighed and the blood quenched in 300 μl stop solution consisting of acetonitrile/water (80:20) and an internal standard.
Blood concentrations of the compound (prodrug) and its parent drug are determined using LC-MS/MS analysis with a limit of quantification of 4 to 40 ng/mL.
Mean arithmetic plasma/blood concentrations are calculated using BLQ (below limit of quantitation)−value of zero if necessary. • Mean AUCinfIV [ng*h/mL] The area under the blood concentration-time curve for a mean normalized (1 mg/kg) iv application from time zero to the last sampling time with a concentration above the limit of quantification. • Mean AUCinfIV is calculated according to the linear trapezoidal rule.
In a study mice are intravenously treated with prodrugs according to the invention, followed by determination of the blood concentration of the drug. […]

## NCC(=O)Nc1nonc1-c1nc2ccccc2n1CC(=O)c1ccc(N)cc1 [Example 13, 2-Amino-N-(4-{1-[2-(4-amino-phenyl)-2-oxo-ethyl]-1H-benzoimidazol-2-yl}-furazan-3-yl)-acetamide]
[1]
  conversion of prodrug into its parent drug: approximately 74%

## N#CCCNc1nonc1-c1nc2ccccc2n1CC(=O)c1ccc(NC(=O)[C@@H](N)CCCCN)cc1 [Example 1, S-2,6-diamino-hexanoic acid [4-(2-{2-[4-(2-cyano-ethylamino)-furazan-3-yl]-benzoimidazol-1-yl}-acetyl)-phenyl]-amide]
[2]; pH 3.0 buffer
  solubility kinetic at 6 h: > 200 µM
[2]; pH 5.0 buffer
  solubility kinetic at 6 h: > 200 µM
[2]; pH 6.5 buffer
  solubility kinetic at 6 h: 190 µM (≈ 98 µg/mL)
[3]
  MTD: 21 mg/kg
[4]; plasma, analyte Example 1 (free base), after i.v. 19.6 mg Example 1, xenografted mice, read-out: AUClast of Example 1 in plasma
  AUC(0-t): 21100 ng·h/mL
[4]; plasma, analyte Example 1 (free base), after i.v. 19.6 mg Example 1, xenografted mice, read-out: Cmax of Example 1 in plasma
  Cmax: 81900 ng/mL
[4]; plasma, analyte Example 1 (free base), after i.v. 19.6 mg Example 1, xenografted mice, read-out: T1/2 of Example 1 in plasma (converted)
  half-life: 5.5 h
[4]; tumor, analyte Example 1 (free base), after i.v. 19.6 mg Example 1, xenografted mice, read-out: AUClast of Example 1 in tumors
  AUC(0-t): 29300 ng·h/mL
[4]; tumor, analyte Example 1 (free base), after i.v. 19.6 mg Example 1, xenografted mice, read-out: Cmax of Example 1 in tumors
  Cmax: 6010 ng/mL
[4]; tumor, analyte Example 1 (free base), after i.v. 19.6 mg Example 1, xenografted mice, read-out: T1/2 of Example 1 in tumors (converted)
  half-life: 9.6 h
[5]
  final T/C (ratio of tumor volume in the treatment group vs. the control group) at day 24: 34%
[5]; parent drug 2.7 mg/kg
  final T/C (day 24): 26%

## C[C@H](N)C(=O)Nc1ccc(C(=O)Cn2c(-c3nonc3NCCC#N)nc3ccccc32)cc1 [Example 2]
[2]; pH 3.0 buffer
  solubility kinetic at 6 h: > 200 µM
[2]; pH 5.0 buffer
  solubility kinetic at 6 h: 55 µM (≈ 25.2 µg/mL)
[2]; pH 6.5 buffer
  solubility kinetic at 6 h: 91 µM (≈ 41.7 µg/mL)

## N#CCCNc1nonc1-c1nc2ccccc2n1CC(=O)c1ccc(NS(=O)(=O)O)cc1 [Example 15, [4-(2-{2-[4-(2-Cyano-ethylamino)-furazan-3-yl]-benzoimidazol-1-yl}-acetyl)-phenyl]-sulfamic acid]
[6]
  levels of the parent drug after intravenous administration: no significant levels

## NCC(=O)Nc1ccc(C(=O)Cn2c(-c3nonc3N)nc3ccccc32)cc1 [Example 12, 2-Amino-N-(4-{2-[2-(4-amino-furazan-3-yl)-benzoimidazol-1-yl]-acetyl}-phenyl)-acetamide]
[1]
  conversion of prodrug into its parent drug: completely converted

## N#CCCNc1nonc1-c1nc2ccccc2n1CC(=O)c1ccc(NC(=O)CN)cc1 [Example 3]
[2]; pH 3.0 buffer
  solubility kinetic at 6 h: > 200 µM
[2]; pH 5.0 buffer
  solubility kinetic at 6 h: 71 µM (≈ 31.6 µg/mL)
[2]; pH 6.5 buffer
  solubility kinetic at 6 h: 106 µM (≈ 47.1 µg/mL)

## CN(C)/C=N/c1ccc(C(=O)Cn2c(-c3nonc3NCCC#N)nc3ccccc32)cc1 [Example 14, N′-[4-(2-{2-[4-(2-Cyano-ethylamino)-furazan-3-yl]-benzoimidazol-1-yl}-acetyl)-phenyl]-N,N-dimethyl-formamidine]
[6]
  levels of the parent drug after intravenous administration: no significant levels

## CC(C)C[C@H](N)C(=O)Nc1ccc(C(=O)Cn2c(-c3nonc3NCCC#N)nc3ccccc32)cc1 [Example 11]
[2]; pH 3.0 buffer
  solubility kinetic at 6 h: 189 µM (≈ 94.6 µg/mL)
[2]; pH 5.0 buffer
  solubility kinetic at 6 h: 37 µM (≈ 18.5 µg/mL)
[2]; pH 6.5 buffer
  solubility kinetic at 6 h: 20 µM (≈ 10 µg/mL)

## N#CCCNc1nonc1-c1nc2ccccc2n1CC(=O)c1ccc(N)cc1 [Parent Drug, 3-(4-{1-[2-(4-Amino-phenyl)-2-oxo-ethyl]-1H-benzoimidazol-2-yl}-furazan-3-ylamino)-propionitrile, reference compound]
[2]; pH 3.0 buffer
  solubility kinetic at 6 h: < 10 µM
[2]; pH 5.0 buffer
  solubility kinetic at 6 h: < 10 µM
[2]; pH 6.5 buffer
  solubility kinetic at 6 h: < 10 µM
[3]; i.v. once weekly, set 15-20% lower than dose causing body weight loss, read-out: MTD in tumor-bearing mice
  MTD: 8 mg/kg
[4]; plasma, after i.v. 8 mg/kg Parent Drug, 4th application, xenografted mice, read-out: Cmax of Parent Drug in plasma
  Cmax: 11000 ng/mL
[4]; plasma, after i.v. 8 mg/kg Parent Drug, xenografted mice, read-out: AUClast of Parent Drug in plasma
  AUC(0-t): 44800 ng·h/mL
[4]; plasma, after i.v. 8 mg/kg Parent Drug, xenografted mice, read-out: T1/2 of Parent Drug in plasma (converted)
  half-life: 3.2 h
[4]; tumor, after i.v. 8 mg/kg Parent Drug, 4th application, xenografted mice, read-out: Cmax of Parent Drug in tumors
  Cmax: 3210 ng/mL
[4]; tumor, after i.v. 8 mg/kg Parent Drug, xenografted mice, read-out: AUClast of Parent Drug in tumors
  AUC(0-t): 45500 ng·h/mL
[4]; tumor, after i.v. 8 mg/kg Parent Drug, xenografted mice, read-out: T1/2 of Parent Drug in tumors (converted)
  half-life: 5.4 h
[5]
  final T/C (ratio of tumor volume in the treatment group vs. the control group) at day 24: 45%
[5]; parent drug 2.7 mg/kg
  final T/C (day 24): 54%
[5]; three times per week i.v., parent drug 2.7 mg/kg
  death of animals during treatment: one animal in the parent drug-group (three times per week treatment) died at day 10
